Measured values from patent US4124726A, “Anti-inflammatory agent of benzoyl derivative” (priority 1976, dated 1978).

Key:
[1] = tested on: painful stretchings induced by acetic acid; experiment: acetic acid induced stretching (analgesic effect); conditions: 100 mg/kg oral, 0.7% acetic acid i.p., mice
Experimental: Each sample was orally administrated in the dosage of 100 mg/kg before injection of acetic acid.

[2] = in vivo; conditions: mouse, po
Experimental: Each sample was dissolved in olive oil or dispersed in 1% Tween 20 aqueous solution.

[3] = tested on: platelet aggregation; experiment: blood platelet aggregation inhibition, collagen as inducer; assay type: cell-based; conditions: 10^-4 mole, rabbit PRP
Description: Blood platelet aggregation inhibiting effect
Male rabbits (Japan original white strain 3.3 to 3.6 kg) were anesthetized with Thiopental sodium and blood was sampled from the carotid artery.

[4] = tested on: carragheenin edema; experiment: acute carragheenin edema inhibition (anti-inflammatory effect); assay type: in vivo, male rats; conditions: 100 mg/kg oral, carragheenin edema, rats; for Anti-inf. (edema inhibition rate): Table 2
Experimental: The edema was induced by subcutaneous injection of 1% carraheenin suspension in saline to the hind paws of male rats weighing 150 to 180 g. Each sample was orally given at the dosage of 100 mg/kg just before the inoculation of carragheenin.

| SMILES | Analgesic (percentage diminution of times of painful stretchings) [1] [%] | LD50 at 72 h [2] [mg/kg] | Blood platelet agg. inh. (percentage inhibition of platelet aggregation) [3] [%] | Anti-inf. (edema inhibition rate) [4] [%] | inhibition in vivo at 100 mg/kg ([4]; Rattus norvegicus, Table 2', read-out: Anti-inf.) [%] | Anti-inf. ([4]; Table 2') |
| --- | --- | --- | --- | --- | --- | --- |
| CCCCCCc1ccc(C(=O)C(=O)c2ccccc2)cc1 [compound 56] | 20.5 | 10000 | 20.3 |  |  |  |
| CCCCc1ccc(C(=O)c2ccc(Cl)cc2)cc1 [compound 64] | 6.6 | 3000 | 28.5 |  |  |  |
| CCc1ccc(C(=O)c2ccccc2)cc1 [compound 66] | 15.7 | 2000 | 20.7 |  |  |  |
| CC(C)Cc1ccc(C(=O)c2ccccc2)cc1 [compound 67] | 19.1 | 2000 | 18.5 |  |  |  |
| Cc1ccc(C(=O)c2ccccc2)cc1C [compound 72] | 23.4 | 1000 | 28.7 |  |  |  |
| COc1ccc(C(=O)c2ccccc2)c(OC)c1 [compound 74] | 24.2 | 5000 | 18.5 |  |  |  |
| COc1ccc(OC)c(C(=O)c2ccccc2)c1 [compound 75] | 22.0 | 5000 | 30.7 |  |  |  |
| COc1cc(OC)c(C(=O)c2ccccc2)c(OC)c1 [compound 76] | 13.9 | 2500 | 16.2 |  |  |  |
| Cc1cc(C)c(C(=O)c2ccccc2)c(C)c1C [compound 79] | 20.8 | 1000 | 26.8 |  |  |  |
| CCCCCCCc1ccc(C(=O)c2ccc(C)cc2)cc1 [compound 85] |  |  | 18.7 | 18.7 |  |  |
| CCCCCc1ccc(C(=O)c2cccc(C)c2)cc1 [compound 89] | 4.3 | 10000 | 22.6 |  |  |  |
| CCCCOc1ccc(C(=O)c2c(C)cc(C)cc2C)cc1 [compound 94] | 15.8 | 500 | 27.9 |  |  |  |
| CCCCc1ccc(C(=O)c2ccc(CCC)cc2)cc1 [compound 98] | 16.4 | 4000 | 28.3 |  |  |  |
| CCCCCc1ccc(C(=O)c2ccc(CCC)cc2)cc1 [compound 99] | 15.5 | 5000 | 29.5 |  |  |  |
| CCCCCCc1ccc(C(=O)c2c(C)cc(C)cc2C)cc1 [compound 103] | 14.2 | 500 | 29.5 |  |  |  |
| CCCc1ccc(C(=O)c2ccc(O)cc2)cc1 [compound 104] | 13.2 | 3000 | 25.3 |  |  |  |
| CCCCCc1ccc(C(=O)c2ccc(O)cc2)cc1 [compound 105] | 14.1 | 4000 | 24.1 |  |  |  |
| CCc1ccc(C(=O)c2ccc(CC)cc2)cc1 [compound 106] | 7.3 | 1000 | 20.3 |  |  |  |
| CCc1ccc(C(=O)c2ccc(OC)cc2)cc1 [compound 107] |  |  | 20.3 | 20.3 |  |  |
| O=C(c1ccccc1)c1ccccc1C(=O)c1ccccc1 [compound 113] | 14.5 | 4000 | 25.8 |  |  |  |
| O=C(c1ccc(F)cc1)c1ccc(F)cc1 [compound 114] | 18.3 | 2000 | 26.8 |  |  |  |
| CCCC(C)c1ccc(C(=O)c2ccccc2F)cc1 (centres unmarked) [compound 121] |  | 3000 |  |  | 64.5 |  |
| CCCCCCCCc1ccc(C(=O)c2cccc(I)c2)cc1 [compound 161] |  | 5000 |  |  |  | 20.9 |
